According to PubChem BioAssay AID179 (DTP/NCI, 2004):
Active and inactive are the calls of the source.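 Rule for the calls: active = compounds giving half or more protection of infected cells from virus-caused growth loss, again on retest; inactive = the rest.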

System: CEM cells HIV-1 protection, formazan growth assay
Test: NCI AIDS Antiviral Assay
Conditions: for IC50: measured here: growth of uninfected CEM cells
Method in brief: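 Five concentrations of each compound were applied to infected and uninfected human CEM cells. Protection from HIV-1 was judged from growth measured with a soluble formazan assay.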

| Structure (SMILES) | EC50 | IC50 | outcome |
| --- | --- | --- | --- |
| C[C@H]1CCC/C=C/[C@@H]2C[C@H](OC(=O)CN(C)C)C[C@H]2[C@H](O)/C=C/C(=O)O1 | > 2 µM | 0.339 µM |  |
| COc1ccc(-n2nc(C)ccc2=O)cc1 | > 1150 µM | 776 µM |  |
| S=c1sc2nc(Cl)nc(Cl)c2s1 | > 200 µM | 13.2 µM |  |
| Nc1ccc(/C=C/c2cccc3cccnc23)cc1 | 0.0631 µM | > 200 µM |  |
| CC1(C)OC(=O)C(=Cc2cccc(Br)c2)C(=O)O1 | > 794 µM | 1.86 µM |  |
| COc1ccc(C23C(=O)c4ccccc4N2O[C@H]2C(=O)N(c4ccccc4)C(=O)[C@H]23)cc1 (some centres not stated) | > 31.6 µM | > 31.6 µM |  |
| COc1ccc(CN2COc3c(ccc4ccccc34)C2)cc1 | > 200 µM | 10.2 µM |  |
| O=c1onc(-c2ccccc2)c2ccccc12 | > 162 µM | > 162 µM |  |
| CCOP(=S)(NN=C1CCC(C(C)(C)C)CC1)OCC (configuration not stated) | > 200 µM | 89.1 µM |  |
| CSC1=C(SC)SC(=C2SC3=C(SC(=C4SCCS4)S3)S2)S1 | > 100 µM | > 100 µM |  |
| Cc1cn([C@@H]2C[C@H](CO)[C@@H]2O)c(=O)[nH]c1=O | > 200 µM | > 200 µM |  |
| Nc1nnc2c(-c3ccccc3)[nH]nc2n1 |  |  | inactive |
| OCc1cc2c(ccc3sc4ccc5sc6ccc7ncccc7c6c5c4c32)s1 | > 200 µM | 11.2 µM |  |
| O=C(O)Cc1ccc2c(c1O)C(=O)c1c(ccc(CC(=O)O)c1O)C2=O | > 191 µM | 126 µM |  |
| COc1nc(NC2OC(COC(C)=O)C(OC(C)=O)C(OC(C)=O)C2OC(C)=O)c2c(n1)OCC2=O (configuration not stated) |  |  | inactive |
| CCOP(=S)(OCC)Oc1cc(C)nc(C(C)C)n1 | > 309 µM | > 309 µM |  |
| CC/C(Cl)=N\OC(=O)Nc1ccc(OC)c(C)c1 | > 20 µM | 15.8 µM |  |
| COc1ccc(N2C(=O)C3c4[nH]c5ccc(C)cc5c4C4CCC(C)CC4C3C2=O)cc1 (configuration not stated) | > 100 µM | > 100 µM |  |

| Structure (SMILES) | EC50 | IC50 | outcome |
| --- | --- | --- | --- |
| CN(C)c1nc(N(C)C)nc(N(C)CN(C)c2ccccc2)n1 | > 100 µM | > 100 µM |  |
| COC1OC(COCc2ccc(Cl)cc2)C(OCc2ccc(Cl)cc2)C1N=[N+]=[N-] (configuration not stated) |  |  | inactive |
| CN(C)c1nc(=NCc2ccccn2)ss1 | > 17.4 µM | 9.33 µM |  |
| O=C/C1=C/C2=Cc3ccccc3C=C(/C=C(/C=O)C1)C2 | > 100 µM | 43.7 µM |  |
| COCCOCCOCCOc1cccc2c1C(=O)c1c(OCCOCCOCCOC)cccc1C2=O |  |  | inactive |
| O=C(c1ccco1)N(Cc1ccco1)C(=S)Nc1ccccc1 | > 200 µM | 12 µM |  |
| O=c1[nH]nc(-c2ccccc2)n1-c1ccncc1 | > 200 µM | > 200 µM |  |
| Cc1cc2c(c(C(N)=O)c1C)-c1cc(Cl)cc(Cl)c1C2=O | > 22.4 µM | > 22.4 µM |  |
| Cc1ccccc1C1OC(=O)c2ccccc21 (configuration not stated) | > 158 µM | 97.7 µM |  |
| O=C(NC1=NC2C=CC([N+](=O)[O-])=CC2S1)C(=O)Nn1c(=S)[nH]c2ccccc2c1=O (configuration not stated) | > 81.3 µM | 74.1 µM |  |
| Brc1ccc(CCc2ncc[nH]2)cc1 | > 282 µM | 174 µM |  |
| CC(C)(C)CC(C)(C)c1cc2c(O)c(c1)Cc1cc(C(C)(C)CC(C)(C)C)cc(c1O)Cc1cc(C(C)(C)CC(C)(C)C)cc(c1O)Cc1cc(C(C)(C)CC(C)(C)C)cc(c1O)Cc1cc(C(C)(C)CC(C)(C)C)cc(c1O)C2 | > 8.71 µM | > 8.71 µM |  |
| COC1=CC(O)(CC(N)=O)c2ccccc2C1=O (configuration not stated) | > 1000 µM | > 1000 µM |  |
| CCC(=O)COc1ccc(NC(NC(=O)C(C(F)(F)F)C(F)(F)F)(C(F)(F)F)C(F)(F)F)cc1 |  |  | inactive |
| O=Nc1ccc(N(CCO)CCO)cc1 | > 200 µM | 2.95 µM |  |
| Cc1cc2c(cc1Cl)SC(NNC1=NCCN1)=NS2(=O)=O | > 200 µM | 115 µM |  |
| CC(C)C1CNC(=O)C2(CCCO2)CNC(C(C)C)CNC(=O)C2(CCCO2)CN1 (configuration not stated) | > 295 µM | > 295 µM |  |
| CN(C)c1ccc2nc(C(=O)O)c(=O)n(C)c2c1 | > 200 µM | > 200 µM |  |
